Data taken from ChEMBL document CHEMBL4308841, “Synthesis, in vitro antiproliferative activity, and kinase inhibitory effects of pyrazole-containing diarylureas and diarylamides” (Eur J Med Chem, 2018).

Experiments:
[1] = tested on: NCI-H322M; test: Growth inhibition of human NCI-H322M cells incubated for 48 hrs by sulforhodamine B assay; assay type: functional, cell-based
[2] = tested on: KM12; test: Growth inhibition of human KM12 cells incubated for 48 hrs by sulforhodamine B assay; assay type: functional, cell-based; details: KM12, 48 h
[3] = tested on: IGROV-1; test: Growth inhibition of human IGROV1 cells incubated for 48 hrs by sulforhodamine B assay; assay type: functional, cell-based; details: IGROV-1, 48 h
[4] = tested on: 786-0; test: Growth inhibition of human 786-0 cells incubated for 48 hrs by sulforhodamine B assay; assay type: functional, cell-based; details: 786-0, 48 h
[5] = tested on: ACHN; test: Growth inhibition of human ACHN cells incubated for 48 hrs by sulforhodamine B assay; assay type: functional, cell-based
[6] = tested on: BT-549; test: Growth inhibition of human BT549 cells incubated for 48 hrs by sulforhodamine B assay; assay type: functional, cell-based; details: BT-549, 48 h
[7] = tested on: CCRF-CEM; test: Growth inhibition of human CCRF-CEM cells assessed as cell growth at 0.01 uM incubated for 48 hrs by sulforhodamine B assay relative to control; assay type: functional; details: read-out: Activity
[8] = tested on: NCI-H322M; test: Growth inhibition of human NCI-H322M cells assessed as cell growth at 0.01 uM incubated for 48 hrs by sulforhodamine B assay relative to control; assay type: functional; details: read-out: Activity
[9] = tested on: U-251; test: Growth inhibition of human U251 cells assessed as cell growth at 0.01 uM incubated for 48 hrs by sulforhodamine B assay relative to control; assay type: functional; details: U-251, 48 h, read-out: Activity
[10] = tested on: OVCAR-3; test: Growth inhibition of human OVCAR3 cells assessed as cell growth at 0.01 uM incubated for 48 hrs by sulforhodamine B assay relative to control; assay type: functional; details: OVCAR-3, 48 h, read-out: Activity
[11] = tested on: BT-549; test: Growth inhibition of human BT549 cells assessed as cell growth at 0.01 uM incubated for 48 hrs by sulforhodamine B assay relative to control; assay type: functional; details: BT-549, 48 h, read-out: Activity
[12] = tested on: T47D; test: Growth inhibition of human T47D cells assessed as cell growth at 0.01 uM incubated for 48 hrs by sulforhodamine B assay relative to control; assay type: functional; details: read-out: Activity
[13] = tested on: MDA-MB-468; test: Growth inhibition of human MDA-MB-468 cells assessed as cell growth at 0.01 uM incubated for 48 hrs by sulforhodamine B assay relative to control; assay type: functional; details: MDA-MB-468, 48 h, read-out: Activity
[14] = tested on: HL-60(TB); test: Growth inhibition of human HL-60(TB) cells assessed as cell growth at 0.1 uM incubated for 48 hrs by sulforhodamine B assay relative to control; assay type: functional; details: HL-60, 48 h, read-out: Activity
[15] = tested on: HCT-15; test: Growth inhibition of human HCT15 cells assessed as cell growth at 0.1 uM incubated for 48 hrs by sulforhodamine B assay relative to control; assay type: functional; details: HCT-15, 48 h, read-out: Activity
[16] = tested on: SW-620; test: Growth inhibition of human SW620 cells assessed as cell growth at 0.1 uM incubated for 48 hrs by sulforhodamine B assay relative to control; assay type: functional; details: SW-620, 48 h, read-out: Activity
[17] = tested on: SNB-19; test: Growth inhibition of human SNB19 cells assessed as cell growth at 0.1 uM incubated for 48 hrs by sulforhodamine B assay relative to control; assay type: functional; details: SNB-19, 48 h, read-out: Activity
[18] = tested on: M14; test: Growth inhibition of human M14 cells assessed as cell growth at 0.1 uM incubated for 48 hrs by sulforhodamine B assay relative to control; assay type: functional; details: M14, 48 h, read-out: Activity
[19] = tested on: SK-MEL-2; test: Growth inhibition of human SK-MEL-2 cells assessed as cell growth at 0.1 uM incubated for 48 hrs by sulforhodamine B assay relative to control; assay type: functional; details: SK-MEL-2, 48 h, read-out: Activity
[20] = tested on: UACC-62; test: Growth inhibition of human UACC62 cells assessed as cell growth at 0.1 uM incubated for 48 hrs by sulforhodamine B assay relative to control; assay type: functional; details: UACC-62, 48 h, read-out: Activity
[21] = tested on: CAKI-1; test: Growth inhibition of human Caki1 cells assessed as cell growth at 0.1 uM incubated for 48 hrs by sulforhodamine B assay relative to control; assay type: functional; details: CAKI-1, 48 h, read-out: Activity
[22] = tested on: Hs-578T; test: Growth inhibition of human Hs578T cells assessed as cell growth at 0.1 uM incubated for 48 hrs by sulforhodamine B assay relative to control; assay type: functional; details: read-out: Activity
[23] = tested on: MOLT-4; test: Growth inhibition of human MOLT4 cells assessed as cell growth at 1 uM incubated for 48 hrs by sulforhodamine B assay relative to control; assay type: functional; details: MOLT-4, 48 h, read-out: Activity
[24] = tested on: NCI-H522; test: Growth inhibition of human NCI-H522 cells assessed as cell growth at 1 uM incubated for 48 hrs by sulforhodamine B assay relative to control; assay type: functional; details: NCI-H522, 48 h, read-out: Activity
[25] = tested on: SK-MEL-28; test: Growth inhibition of human SK-MEL-28 cells assessed as cell growth at 1 uM incubated for 48 hrs by sulforhodamine B assay relative to control; assay type: functional; details: SK-MEL-28, 48 h, read-out: Activity
[26] = tested on: CCRF-CEM; test: Growth inhibition of human CCRF-CEM cells assessed as cell growth at 100 uM incubated for 48 hrs by sulforhodamine B assay relative to control; assay type: functional; details: read-out: Activity
[27] = tested on: SF-295; test: Growth inhibition of human SF295 cells assessed as cell growth at 100 uM incubated for 48 hrs by sulforhodamine B assay relative to control; assay type: functional; details: SF-295, 48 h, read-out: Activity
[28] = tested on: SNB-19; test: Growth inhibition of human SNB19 cells assessed as cell growth at 100 uM incubated for 48 hrs by sulforhodamine B assay relative to control; assay type: functional; details: SNB-19, 48 h, read-out: Activity
[29] = tested on: SK-MEL-5; test: Growth inhibition of human SK-MEL-5 cells assessed as cell growth at 100 uM incubated for 48 hrs by sulforhodamine B assay relative to control; assay type: functional; details: SK-MEL-5, 48 h, read-out: Activity
[30] = tested on: UO-31; test: Growth inhibition of human UO31 cells assessed as cell growth at 100 uM incubated for 48 hrs by sulforhodamine B assay relative to control; assay type: functional; details: UO-31, 48 h, read-out: Activity
[31] = read-out: LC50 (the source's name)
[32] = read-out: pLC50 (the source's name) (converted)

COc1cc(Cl)cc(-c2nn(-c3cccc(NC(=O)Nc4ccc(Cl)c(Cl)c4)c3)cc2-c2ccncc2)c1
GI50 ([1]; read-out: GI50): 3.26 µM | CC50 [1, 31]: > 100 µM | TGI ([1]; read-out: TGI): > 100 µM | GI50 ([1]; read-out: pGI50 (converted)): 3.31 µM | CC50 [1, 32]: > 100 µM | TGI ([1]; read-out: pTGI (converted)): > 100 µM | GI50 ([2]; read-out: GI50): 2.02 µM | CC50 [2, 31]: > 100 µM | TGI ([2]; read-out: TGI): 10.8 µM | GI50 ([2]; read-out: pGI50 (converted)): 2.04 µM | CC50 [2, 32]: > 100 µM | TGI ([2]; read-out: pTGI (converted)): 10.7 µM | GI50 ([3]; read-out: GI50): 4.36 µM | CC50 [3, 31]: > 100 µM | TGI ([3]; read-out: TGI): > 100 µM | GI50 ([3]; read-out: pGI50 (converted)): 4.37 µM | CC50 [3, 32]: > 100 µM | TGI ([3]; read-out: pTGI (converted)): > 100 µM | GI50 ([4]; read-out: GI50): 2.31 µM | CC50 [4, 31]: > 100 µM | TGI ([4]; read-out: TGI): 75.4 µM | GI50 ([4]; read-out: pGI50 (converted)): 2.29 µM | CC50 [4, 32]: > 100 µM | TGI ([4]; read-out: pTGI (converted)): 7.76 µM | GI50 ([5]; read-out: GI50): 3.23 µM | CC50 [5, 31]: > 100 µM | TGI ([5]; read-out: TGI): > 100 µM | GI50 ([5]; read-out: pGI50 (converted)): 3.24 µM | CC50 [5, 32]: > 100 µM | TGI ([5]; read-out: pTGI (converted)): > 100 µM | GI50 ([6]; read-out: GI50): 2.52 µM | CC50 [6, 31]: > 100 µM | TGI ([6]; read-out: TGI): 62.5 µM | GI50 ([6]; read-out: pGI50 (converted)): 2.63 µM | CC50 [6, 32]: > 100 µM | TGI ([6]; read-out: pTGI (converted)): 8.32 µM | growth at 0.01 µM [7]: 97% | growth at 0.01 µM [8]: 101% | growth at 0.01 µM [9]: 95% | growth at 0.01 µM [10]: 100% | growth at 0.01 µM [11]: 96% | growth at 0.01 µM [12]: 94% | growth at 0.01 µM [13]: 95% | growth at 0.1 µM [14]: 93% | growth at 0.1 µM [15]: 53% | growth at 0.1 µM [16]: 97% | growth at 0.1 µM [17]: 90% | growth at 0.1 µM [18]: 100% | growth at 0.1 µM [19]: 54% | growth at 0.1 µM [20]: 97% | growth at 0.1 µM [21]: 102% | growth at 0.1 µM [22]: 97% | growth at 1 µM [23]: 70% | growth at 1 µM [24]: 60% | growth at 1 µM [25]: 87% | growth at 100 µM [26]: -27% | growth at 100 µM [27]: -21% | growth at 100 µM [28]: 10% | growth at 100 µM [29]: -68% | growth at 100 µM [30]: -10%
